{"source": "patent US10577378B2", "about": "“EIF4A-inhibiting compounds and methods related thereto” (eFFECTOR Therapeutics, Inc., priority 2015, dated 2020)", "test_system": "MDA-MB-231 human breast cancer cells", "assay": "Cell proliferation assay (CellTiter-Glo, 72 hours treatment)", "format": "cell-based", "conditions": "Homo sapiens; MDA-MB-231 cells, 72 hours at 37° C., CellTiter-Glo; read-out: MDA-MB-231 cell proliferation assay (IC50)", "summary_of_the_method": "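IC50 categories: under 100 nM +++, 100–1000 nM ++, above 1000 nM +, derived by sigmoidal curve fitting of CellTiter-Glo luminescence. Cells plated at 2,500 per well, dosed the following day and exposed 72 h at 37 °C versus DMSO control.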", "note": "pIC50: −log10 of the molar value."}
{"smiles": "N#Cc1ccc([C@@]23Oc4cc(Cl)cnc4[C@]2(O)[C@H](O)[C@H](S(=O)(=O)c2ccccn2)[C@H]3c2ccccc2)cc1", "note": "(racemic) [164F, Rac-4-((5aR,6S,7R,8S,8aS)-3-chloro-8,8a-dihydroxy-6-phenyl-7-(pyridin-2-ylsulfonyl)-6,7,8,8a-tetrahydro-5aH-cyclopenta[4,5]furo[3,2-b]pyridin-5a-yl)benzonitrile]", "values": [{"measurement": "pIC50", "result": "6.00 to 7.00"}]}
{"smiles": "COc1cncc2c1[C@]1(O)[C@H](O)[C@H](CNCCF)[C@@H](c3ccccc3)[C@]1(c1ccc(C#N)cc1)O2", "note": "(racemic) [259F, Rac-4-((4bS,5R,6S,7S,7aR)-6-(((2-fluoroethyl)amino)methyl)-4b,5-dihydroxy-4-methoxy-7-phenyl-4b,5,6,7-tetrahydro-7aH-cyclopenta[4,5]furo[2,3-c]pyridin-7a-yl)benzonitrile]", "values": [{"measurement": "pIC50", "result": "6.00 to 7.00"}]}
{"smiles": "N#Cc1ccc([C@@]23Oc4cc(Cl)cnc4[C@]2(O)[C@H](O)[C@H](c2ncco2)[C@H]3c2ccccc2)cc1", "note": "(racemic) [26F, Rac-4-((5aR,6S,7R,8R,8aS)-3-chloro-8,8a-dihydroxy-7-(oxazol-2-yl)-6-phenyl-6,7,8,8a-tetrahydro-5aH-cyclopenta[4,5]furo[3,2-b]pyridin-5a-yl)benzonitrile]", "values": [{"measurement": "pIC50", "result": "6.00 to 7.00"}]}
{"smiles": "COc1nc(Cl)cc2c1[C@]1(O)[C@@H](CN3CCOCC3)[C@H](CO)[C@@H](c3ccccc3)[C@]1(c1ccc(Br)cc1)O2", "note": "(racemic) [199F, Rac-(5aR,6S,7R,8R,8aR)-5a-(4-bromophenyl)-3-chloro-7-(hydroxymethyl)-1-methoxy-8-(morpholinomethyl)-6-phenyl-5a,6,7,8-tetrahydro-8aH-cyclopenta[4,5]furo[3,2-c]pyridin-8a-ol]", "values": [{"measurement": "pIC50", "result": "> 7.00"}]}
{"smiles": "CNc1cc2c(c(OC)n1)[C@]1(O)[C@H](O)[C@H](CN(C)C)[C@@H](c3ccccc3)[C@]1(c1ccc(C#N)cc1)O2", "note": "(racemic) [150F, Rac-4-((5aR,6S,7S,8R,8aS)-7-((dimethylamino)methyl)-8,8a-dihydroxy-1-methoxy-3-(methylamino)-6-phenyl-6,7,8,8a-tetrahydro-5aH-cyclopenta[4,5]furo[3,2-c]pyridin-5a-yl)benzonitrile]", "values": [{"measurement": "pIC50", "result": "> 7.00"}]}
{"smiles": "CN(C)C(=O)[C@H]1[C@@H](O)[C@@]2(O)c3ncc(Cl)cc3O[C@@]2(c2ccc(S(C)(=O)=O)cc2)[C@@H]1c1ccccc1", "note": "(single isomer, unassigned) [12F]", "values": [{"measurement": "pIC50", "result": "< 6.00"}]}
{"smiles": "COc1cncc2c1[C@]1(O)[C@H](O)[C@H](CN(C)C)[C@@H](c3ccccc3)[C@]1(c1ccc(Cl)cc1)O2", "note": "(single isomer, unassigned) [272F]", "values": [{"measurement": "pIC50", "result": "> 7.00"}]}
{"smiles": "CC#CC1(O)C(C(=O)N(C)C)[C@@H](c2ccccc2)[C@]2(c3ccc(Br)cc3)Oc3cc(Cl)cnc3[C@]12O", "note": "(mixture of isomers) [191F, Rac-(5aR,6S,8aS)-5a-(4-bromophenyl)-3-chloro-8,8a-dihydroxy-N,N-dimethyl-6-phenyl-8-(prop-1-yn-1-yl)-5a,7,8,8a-tetrahydro-6H-cyclopenta[4,5]furo[3,2-b]pyridine-7-carboxamide]", "values": [{"measurement": "pIC50", "result": "6.00 to 7.00"}]}
{"smiles": "COc1cncc2c1[C@]1(O)[C@H](O)[C@H](CN(C)C)[C@@H](c3ccccc3)[C@]1(c1ccc(C(F)F)cc1)O2", "note": "(single isomer, unassigned) [106F]", "values": [{"measurement": "pIC50", "result": "6.00 to 7.00"}]}
{"smiles": "COc1cncc2c1[C@]1(O)[C@H](O)[C@H](CN3CC(F)(F)C3)[C@@H](c3ccccc3)[C@]1(c1ccc(C#N)cc1)O2", "note": "(single isomer, unassigned) [122F]", "values": [{"measurement": "pIC50", "result": "6.00 to 7.00"}]}
{"smiles": "COc1cncc2c1[C@]1(O)[C@@H](CN3CC4(COC4)C3)[C@H](CO)[C@@H](c3ccccc3)[C@]1(c1ccc(Br)cc1)O2", "note": "(racemic) [compound 201, Rac-(4bR,5R,6R,7S,7aR)-5-((2-oxa-6-azaspiro[3.3]heptan-6-yl)methyl)-7a-(4-bromophenyl)-6-(hydroxymethyl)-4-methoxy-7-phenyl-5,6,7,7a-tetrahydro-4bH-cyclopenta[4,5]furo[2,3-c]pyridin-4b-ol]", "values": [{"measurement": "pIC50", "result": "> 7.00"}]}
{"smiles": "N#Cc1ccc([C@@]23Oc4cc(Cl)cnc4[C@]2(O)[C@H](O)[C@H](S(=O)(=O)N2CCCC2)[C@H]3c2ccccc2)cc1", "note": "(single isomer, unassigned) [83F]", "values": [{"measurement": "pIC50", "result": "> 7.00"}]}
